Results on five compounds are retold here after patent US8575091B1, “Amylin analogues and pharmaceutical compositions thereof” (Novo Nordisk A/S, priority 2012, dated 2013).

Numbered stars: 1 amine (or outer) side, 2 acyl side, 3 side chain; on linkers, the order of the positions; unused ones are H or OH. Bridge positions count the residues as written; N and C are the ends. Side chains are listed from the residue outwards. Peptide text beside a SMILES is read from it. * marks the point of attachment. C20 diacid = O=C(O)CCCCCCCCCCCCCCCCCCC(=O)*; γGlu = O=C(O)[C@H](CCC(=O)[*:2])N[*:1]

The target of assay [1] is T1, human calcitonin receptor (Homo sapiens, UniProt P30988).
T1 construct: expressed in transfected cells
T1 sequence (P30988 25-474): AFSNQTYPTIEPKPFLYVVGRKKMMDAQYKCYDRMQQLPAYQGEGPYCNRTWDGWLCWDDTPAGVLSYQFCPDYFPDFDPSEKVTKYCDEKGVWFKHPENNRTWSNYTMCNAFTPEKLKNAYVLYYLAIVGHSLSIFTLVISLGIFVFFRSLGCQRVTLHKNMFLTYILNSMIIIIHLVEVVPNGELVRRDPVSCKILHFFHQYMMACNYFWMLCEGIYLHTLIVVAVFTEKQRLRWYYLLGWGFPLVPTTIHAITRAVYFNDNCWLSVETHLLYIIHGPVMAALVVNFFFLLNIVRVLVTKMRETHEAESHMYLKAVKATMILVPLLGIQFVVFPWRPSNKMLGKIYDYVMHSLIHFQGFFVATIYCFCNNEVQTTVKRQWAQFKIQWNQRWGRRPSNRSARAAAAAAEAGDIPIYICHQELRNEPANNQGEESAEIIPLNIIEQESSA
Nature of the assay: Assay (VII) binding to the human calcitonin receptor (SPA, 125I-Calcitonin).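 Also: cell membranes coupled to SPA beads, competitive displacement read by scintillation counting, IC50 derived from a one-site competition fit as a measure of receptor affinity.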 The note with it: read-out: hCTR bind IC50.

Assay [2] has as its target T2, human amylin receptor (Homo sapiens, UniProt O60896+P30988).
T2 construct: expressed in transfected cells
T2 sequence (P30988 25-474): T1 sequence (P30988 25-474)
T2 sequence (O60896 24-148 partner): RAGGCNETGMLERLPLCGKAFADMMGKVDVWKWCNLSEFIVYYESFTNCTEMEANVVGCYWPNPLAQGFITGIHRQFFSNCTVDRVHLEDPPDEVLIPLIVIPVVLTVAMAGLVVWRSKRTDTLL
Nature of the assay: Assay (V) binding to the human amylin receptor (SPA, 125I-rat amylin). The note with it: for IC50: human amylin receptor membranes, SPA, read-out: hAmylin-R bind IC50; for Ratio hCT/hAmylin binding: human binding ratio, included for comparison. A digest of the protocol:
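IC50, taken as receptor affinity, came from one-site binding competition analysis of scintillation proximity counts. Amylin 3(a)/CRE-luc cell membranes (35 ng/μL final) were mixed with SPA beads (0.05 mg/well) in 50 mM Hepes pH 7.4 containing CaCl2, MgCl2, 0.1% OA and 0.02% Tween20.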

The target of assay [3] is T3, human amylin receptor (amylin 3(a) receptor: human calcitonin receptor + RAMP-3) (Homo sapiens, UniProt O60896+P30988).
T3 construct: expressed in transfected cells
T3 sequence (P30988 25-474): T1 sequence (P30988 25-474)
T3 sequence (O60896 24-148 partner): T2 sequence (O60896 24-148 partner)
Nature of the assay: Assay (II)a functional assay, human amylin receptor (CRE luciferase, BHK cells). In kind it is cell-based.

[4] abbreviates: Table 6, human functional selectivity (hCTR EC50 / hAmylin-R EC50).
The mark [5] stands for this setting: Table 6a, human functional selectivity (hCTR EC50 / hAmylin-R EC50), at least 5.

With `CC(C)C[C@H](NC(=O)[C@H](CCCNC(=N)N)NC(=O)[C@H](CCC(N)=O)NC(=O)[C@@H](NC(=O)[C@H](C)NC(=O)[C@@H]1CSSC[C@H](NC(=O)[C@@H](N)CCCCNC(=O)CC[C@H](NC(=O)CC[C@H](NC(=O)CCCCCCCCCCCCCCCCCCC(=O)O)C(=O)O)C(=O)O)C(=O)N[C@@H](CC(N)=O)C(=O)N[C@@H]([C@@H](C)O)C(=O)N[C@@H](C)C(=O)N[C@@H]([C@@H](C)O)C(=O)N1)[C@@H](C)O)C(=O)N[C@@H](C)C(=O)N[C@@H](CC(=O)O)C(=O)N[C@@H](Cc1ccccc1)C(=O)N[C@@H](CC(C)C)C(=O)N[C@@H](CCCNC(=N)N)C(=O)N[C@@H](Cc1c[nH]cn1)C(=O)N[C@@H](CO)C(=O)N[C@@H](CO)C(=O)N[C@@H](CC(N)=O)C(=O)N1CCC[C@H]1C(=O)N[C@@H](Cc1ccccc1)C(=O)NCC(=O)N[C@@H](C)C(=O)N1CCC[C@H]1C(=O)N[C@@H](CC(C)C)C(=O)N[C@@H](CO)C(=O)N[C@@H](CO)C(=O)N[C@H](C(=O)N[C@@H](CC(N)=O)C(=O)N[C@H](C(=O)NCC(=O)N[C@@H](CO)C(=O)N[C@@H](CC(=O)O)C(=O)N[C@H](C(=O)N[C@@H](Cc1ccc(O)cc1)C(N)=O)[C@@H](C)O)C(C)C)[C@@H](C)O` [Example 3] (H-K([γGlu-γGlu-C20 diacid])CNTATCATQRLADFLRHSSNPFGAPLSSTNVGSDTY-NH2; disulfide 2-7), the values for the IC50 in assay [1] and in assay [2] were 19.5 nM and 1.13 nM, respectively. Further, the “Ratio hCT/hAmylin funct.” value in assay [3] (setting [4]) and in assay [3] (setting [5]) was 6.7 each time.
Consider `CC[C@H](C)[C@H](NC(=O)[C@H](C)NC(=O)CNC(=O)[C@H](Cc1ccccc1)NC(=O)[C@H](CC(N)=O)NC(=O)[C@@H]1CCCN1C(=O)[C@H](CO)NC(=O)[C@H](CO)NC(=O)[C@H](Cc1c[nH]cn1)NC(=O)[C@H](CCCNC(=N)N)NC(=O)[C@H](CC(C)C)NC(=O)[C@H](Cc1ccccc1)NC(=O)[C@H](CCC(=O)O)NC(=O)[C@H](C)NC(=O)[C@H](CC(C)C)NC(=O)[C@H](CCCNC(=N)N)NC(=O)[C@H](CCC(N)=O)NC(=O)[C@@H](NC(=O)[C@H](C)NC(=O)[C@@H]1CSSC[C@H](NC(=O)[C@H](CCCCN)NC(=O)CC[C@H](NC(=O)CCCCCCCCCCCCCCCCCCC(=O)O)C(=O)O)C(=O)N[C@@H](CC(N)=O)C(=O)N[C@@H]([C@@H](C)O)C(=O)N[C@@H](C)C(=O)N[C@@H]([C@@H](C)O)C(=O)N1)[C@@H](C)O)C(=O)N[C@@H](CC(C)C)C(=O)N1CCC[C@H]1C(=O)N[C@@H](CO)C(=O)N[C@H](C(=O)N[C@@H](CC(N)=O)C(=O)N[C@H](C(=O)NCC(=O)N[C@@H](CO)C(=O)N[C@@H](CCC(=O)O)C(=O)N[C@H](C(=O)N[C@@H](Cc1ccc(O)cc1)C(N)=O)[C@@H](C)O)C(C)C)[C@@H](C)O` [Example 33] ({C20 diacid-γGlu}-KCNTATCATQRLAEFLRHSSPNFGAILPSTNVGSETY-NH2; disulfide 2-7), for which the “Ratio hCT/hAmylin binding” value in assay [2] is given as 3.9. Also, the “Ratio hCT/hAmylin funct.” value in assay [3] (setting [4]) and in assay [3] (hCTR funct. EC50 divided by hAmylin-R funct. EC50) was 2.2 throughout.
Consider `CC[C@H](C)[C@H](NC(=O)[C@H](C)NC(=O)CNC(=O)[C@H](Cc1ccccc1)NC(=O)[C@H](CC(N)=O)NC(=O)[C@@H]1CCCN1C(=O)[C@H](CO)NC(=O)[C@H](CO)NC(=O)[C@H](Cc1c[nH]cn1)NC(=O)[C@H](CCCNC(=N)N)NC(=O)[C@H](CC(C)C)NC(=O)[C@H](Cc1ccccc1)NC(=O)[C@H](CCC(=O)O)NC(=O)[C@H](C)NC(=O)[C@H](CC(C)C)NC(=O)[C@H](CCCNC(=N)N)NC(=O)[C@H](CCC(N)=O)NC(=O)[C@@H](NC(=O)[C@H](C)NC(=O)[C@@H]1CSSC[C@H](NC(=O)[C@H](CCCCN)NC(=O)CC[C@H](NC(=O)CCCCCCCCCCCCCCCCCCC(=O)O)C(=O)O)C(=O)N[C@@H](CC(N)=O)C(=O)N[C@@H]([C@@H](C)O)C(=O)N[C@@H](C)C(=O)N[C@@H]([C@@H](C)O)C(=O)N1)[C@@H](C)O)C(=O)N1CCC[C@H]1C(=O)N[C@@H](CO)C(=O)N1CCC[C@H]1C(=O)N[C@H](C(=O)N[C@@H](CC(N)=O)C(=O)N[C@H](C(=O)NCC(=O)N[C@@H](CO)C(=O)N[C@@H](CC(N)=O)C(=O)N[C@H](C(=O)N[C@@H](Cc1ccc(O)cc1)C(N)=O)[C@@H](C)O)C(C)C)[C@@H](C)O` [Example 37] ({C20 diacid-γGlu}-KCNTATCATQRLAEFLRHSSPNFGAIPSPTNVGSNTY-NH2; disulfide 2-7), for which the “Ratio hCT/hAmylin binding” value in assay [2] was 2.3. The “Ratio hCT/hAmylin funct.” value in assay [3] (setting [4]) was 4.0.
Consider `CC[C@H](C)[C@H](NC(=O)[C@H](C)NC(=O)CNC(=O)[C@H](Cc1ccccc1)NC(=O)[C@H](CC(N)=O)NC(=O)[C@H](CCCCNC(=O)CC[C@H](NC(=O)CC[C@H](NC(=O)CCCCCCCCCCCCCCCCCCC(=O)O)C(=O)O)C(=O)O)NC(=O)[C@H](CO)NC(=O)[C@H](CO)NC(=O)[C@H](Cc1c[nH]cn1)NC(=O)[C@H](CCCNC(=N)N)NC(=O)[C@H](CC(C)C)NC(=O)[C@H](Cc1ccccc1)NC(=O)[C@H](CC(=O)O)NC(=O)[C@H](C)NC(=O)[C@H](CC(C)C)NC(=O)[C@H](CCCNC(=N)N)NC(=O)[C@H](CCC(N)=O)NC(=O)[C@@H](NC(=O)[C@H](C)NC(=O)[C@@H]1CSSC[C@H](NC(=O)[C@@H](N)CCCCN)C(=O)N[C@@H](CC(N)=O)C(=O)N[C@@H]([C@@H](C)O)C(=O)N[C@@H](C)C(=O)N[C@@H]([C@@H](C)O)C(=O)N1)[C@@H](C)O)C(=O)N1CCC[C@H]1C(=O)N[C@@H](CO)C(=O)N[C@@H](CO)C(=O)N[C@H](C(=O)N[C@@H](CC(N)=O)C(=O)N[C@H](C(=O)NCC(=O)N[C@@H](CO)C(=O)N[C@@H](CC(=O)O)C(=O)N[C@H](C(=O)N[C@@H](Cc1ccc(O)cc1)C(N)=O)[C@@H](C)O)C(C)C)[C@@H](C)O` [Example 59] (H-KCNTATCATQRLADFLRHSSK([γGlu-γGlu-C20 diacid])NFGAIPSSTNVGSDTY-NH2; disulfide 2-7; N-terminus assumed), for which, in assay [2], the “Ratio hCT/hAmylin binding” value turned out to be 4.3. Moreover, the “Ratio hCT/hAmylin funct.” value in assay [3] (setting [4]) and in assay [3] (setting [5]) was 5.0 each time.
For `CC[C@H](C)[C@H](NC(=O)[C@H](C)NC(=O)CNC(=O)[C@H](Cc1ccccc1)NC(=O)[C@H](CC(N)=O)NC(=O)[C@@H]1CCCN1C(=O)[C@H](CO)NC(=O)[C@H](CO)NC(=O)[C@H](Cc1c[nH]cn1)NC(=O)[C@H](CCCNC(=N)N)NC(=O)[C@H](CC(C)C)NC(=O)[C@H](Cc1ccccc1)NC(=O)[C@H](Cc1c[nH]cn1)NC(=O)[C@H](C)NC(=O)[C@H](CC(C)C)NC(=O)[C@H](CCCNC(=N)N)NC(=O)[C@H](CCC(N)=O)NC(=O)[C@@H](NC(=O)[C@H](C)NC(=O)[C@@H]1CSSC[C@H](NC(=O)[C@@H](N)CCCCNC(=O)COCCOCCNC(=O)CCCCCCCCCCCCCCCCCCC(=O)O)C(=O)N[C@@H](CC(N)=O)C(=O)N[C@@H]([C@@H](C)O)C(=O)N[C@@H](C)C(=O)N[C@@H]([C@@H](C)O)C(=O)N1)[C@@H](C)O)C(=O)N1CCC[C@H]1C(=O)N[C@@H](CO)C(=O)N[C@@H](CO)C(=O)N[C@H](C(=O)N[C@@H](CC(N)=O)C(=O)N[C@H](C(=O)NCC(=O)N[C@@H](CO)C(=O)N[C@@H](CC(N)=O)C(=O)N[C@H](C(=O)N[C@@H](Cc1ccc(O)cc1)C(N)=O)[C@@H](C)O)C(C)C)[C@@H](C)O` [Example 90], the IC50 in assay [1] turned out to be 2.57 nM; in assay [2], 0.061 nM. Moreover, the EC50 in assay [3] (Table 6j, human amylin receptor functional, read-out: hAmylin-R funct. EC50) was found to be 0.033 nM.
